Source: ChEMBL document CHEMBL1124124, “Synthesis and interaction with uridine phosphorylase of 5'-deoxy-4',5-difluorouridine, a new prodrug of 5-fluorouracil” (J Med Chem, 1988)

Tested on: Uridine phosphorylase (Mus musculus)
Experiment: Relative Vmax for interaction with Urd phosphorylase

Relative Vmax: 5
Structure (SMILES): C[C@@]1(F)OC(n2cc(F)c(=O)[nH]c2=O)[C@H](O)[C@@H]1O (stereo partly specified)
